ChEMBL document CHEMBL1148935, “Mechanism-based inactivation of COX-1 by red wine m-hydroquinones: a structure-activity relationship study” (J Nat Prod, 2004)
pIC50, pKd: −log10 of the molar value. Active and inactive are the calls of the source. The rule behind the calls is not given here.

Legend:
[1] = target: T1, Prostaglandin G/H synthase 1 (Ovis aries, UniProt P05979); assay: Inhibition of peroxidase activity of COX1 in heep seminal vesicle by TMPD assay; format: tissue-based
T1 sequence (P05979 whole entry): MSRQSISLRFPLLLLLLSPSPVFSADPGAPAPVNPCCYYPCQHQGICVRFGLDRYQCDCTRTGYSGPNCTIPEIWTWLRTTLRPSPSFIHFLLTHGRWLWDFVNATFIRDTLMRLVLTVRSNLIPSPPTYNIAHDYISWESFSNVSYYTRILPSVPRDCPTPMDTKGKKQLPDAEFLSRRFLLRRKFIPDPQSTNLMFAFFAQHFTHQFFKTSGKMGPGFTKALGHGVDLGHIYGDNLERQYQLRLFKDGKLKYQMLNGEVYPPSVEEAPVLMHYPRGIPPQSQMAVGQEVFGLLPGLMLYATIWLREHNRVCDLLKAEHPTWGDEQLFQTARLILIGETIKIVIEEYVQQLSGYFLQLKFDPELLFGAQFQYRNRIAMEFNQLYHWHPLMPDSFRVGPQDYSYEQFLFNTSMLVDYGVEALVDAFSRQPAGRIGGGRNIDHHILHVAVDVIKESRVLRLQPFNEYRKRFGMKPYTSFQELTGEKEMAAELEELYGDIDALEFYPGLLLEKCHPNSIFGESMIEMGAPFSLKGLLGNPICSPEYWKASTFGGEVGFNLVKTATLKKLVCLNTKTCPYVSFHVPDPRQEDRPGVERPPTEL

[2] = target: T1, Prostaglandin G/H synthase 1; assay: Inhibition of cyclooxygenase activity of COX1 in sheep seminal vesicle in presence of 1 mM phenol by cyclooxygenase assay; format: tissue-based
[3] = target: T2, Prostaglandin G/H synthase 1 (Ovis aries) (UniProt P05979); assay: Effect on COX1 activity in sheep seminal vesicle at 5 uM by TMPD peroxidase assay; format: tissue-based
T2 sequence (whole entry): T1 sequence (P05979 whole entry)

[4] = target: T2, Prostaglandin G/H synthase 1 (Ovis aries); assay: Inactivation of holo-COX1 in sheep seminal vesicle assessed as drug oxidization at 2.5 to 4 nmol by RP-HPLC in presence of hydrogen peroxide
[5] = target: T1, Prostaglandin G/H synthase 1; assay: Binding affinity to COX1 in sheep seminal vesicle
[6] = target: T3, Prostaglandin G/H synthase 2 (Homo sapiens) (UniProt P35354); assay: Inhibition of human COX2 expressed in baculovirus infected Sf-21 insect cells
T3 sequence (whole entry): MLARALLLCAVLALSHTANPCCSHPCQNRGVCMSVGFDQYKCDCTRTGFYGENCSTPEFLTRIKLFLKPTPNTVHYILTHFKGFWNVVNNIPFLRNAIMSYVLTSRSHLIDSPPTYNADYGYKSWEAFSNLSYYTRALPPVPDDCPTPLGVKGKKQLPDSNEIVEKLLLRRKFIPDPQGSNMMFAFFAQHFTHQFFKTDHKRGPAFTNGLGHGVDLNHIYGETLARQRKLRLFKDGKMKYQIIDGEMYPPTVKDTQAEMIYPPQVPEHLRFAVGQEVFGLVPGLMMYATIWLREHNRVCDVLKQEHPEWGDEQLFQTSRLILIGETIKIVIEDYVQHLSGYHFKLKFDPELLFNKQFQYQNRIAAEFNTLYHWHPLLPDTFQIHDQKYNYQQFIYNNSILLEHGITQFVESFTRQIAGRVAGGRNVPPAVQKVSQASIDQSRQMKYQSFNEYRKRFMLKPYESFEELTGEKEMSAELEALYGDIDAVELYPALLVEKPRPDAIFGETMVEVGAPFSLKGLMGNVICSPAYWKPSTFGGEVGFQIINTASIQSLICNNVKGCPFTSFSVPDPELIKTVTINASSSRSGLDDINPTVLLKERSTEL

pIC50 [1]	pIC50 [2]	Activity [3]	Activity [4] [%]	pKd [5]	Activity [6]	Structure (SMILES)
5.39	4.69	inactive	7	4.39	inactive	Oc1cc(O)c2c(c1)O[C@H](c1ccc(O)c(O)c1)[C@@H](O)C2 [CIANIDANOL]
5.44	4.51	inactive	5	4.06	–	Oc1cccc(O)c1 [RESORCINOL]
5.60	4.89	inactive	5	4.60	inactive	Oc1cc(O)c2c(c1)O[C@@H](c1ccc(O)c(O)c1)[C@@H](O)C2 [(+)-EPICATECHIN]
5.28	4.51	inactive	8	4.31	inactive	Oc1cc(O)c2c(c1)O[C@@H](c1ccc(O)c(O)c1)[C@H](O)C2 [(-)-CATECHIN]
5.70	4.91	inactive	5	4.59	inactive	Oc1cc(O)c2c(c1)O[C@H](c1ccc(O)c(O)c1)[C@H](O)C2 [(-)-EPICATECHIN]

Structure (SMILES)	pIC50 [1]	pIC50 [2]	Activity [3]	Activity [4] [%]	pKd [5]	Activity [6]
Oc1ccc(/C=C/c2cc(O)cc(O)c2)cc1 [RESVERATROL]	5.55	4.17	inactive	–	4.93	–
